Results on 75 compounds are retold here after PubChem BioAssay AID1996.

Each structure is given as a SMILES string. Values after ≈ are worked out from the molar mass of the structure shown.

For this series the following is noted: buffer; pH 7.4; 200.0 µM.
The compound `FC(F)(F)c1ccccc1NC(=S)Nc1ccccc1` gave a solubility (kinetic) of 21.6 µg/mL (≈ 72.9 µM). Regarding `CCc1ccn2cc(-c3cc(-c4ccccc4)no3)nc2c1`, the kinetic solubility was determined as 1.5 µg/mL (≈ 5.18 µM). The result for `COc1ccc(OC)c(S(=O)(=O)NCCCn2ccnc2)c1` reads 41.6 µg/mL (≈ 128 µM); that for `COC(=O)c1cn(C(=O)c2ccc(F)cc2)c2ccccc12`, less than 0.6 µg/mL.

`O=C(Nc1cc(S(=O)(=O)N2CCOCC2)ccc1Cl)c1cc([N+](=O)[O-])ccc1Cl` had a solubility (kinetic) of 2.8 µg/mL (≈ 6.08 µM). The result for `CCCn1nc(Oc2nc(N(C)C)nc(N(C)C)n2)ccc1=O` reads more than 47.9 µg/mL; that for `Cc1ccccc1NC(=O)NCCCN1CCN(C)CC1`, more than 43.6 µg/mL. The result for `O=C(O)c1ccc(NC(=O)c2ccco2)c(NC(=O)c2ccco2)c1` reads more than 51 µg/mL; that for `CC(=O)c1cccc(NC(=O)Nc2ccccc2)c1`, 10.5 µg/mL (≈ 41.3 µM). In turn, `O=S(=O)(c1ccc(-c2ccon2)s1)N1CCCC1` had a solubility (kinetic) of 11.5 µg/mL (≈ 40.4 µM). Regarding `CSc1sc(C(=O)Nc2ccc(F)cc2F)c2c1C=CCC2`, the kinetic solubility stood at 2.9 µg/mL (≈ 8.59 µM). The result for `N/C(=N\O)c1ccccc1N1CCCCC1` reads 29.9 µg/mL (≈ 136 µM); that for `Cc1cc(C)c(C#N)c(N2CCN(c3ccccc3)CC2)n1`, 3.8 µg/mL (≈ 13 µM). The compound `Br.CC1CN2C(c3ccc(Cl)cc3)=CSC2=N1` (stereo not given) yielded a solubility (kinetic) of more than 49.7 µg/mL. Turning to `O=C(Nc1ccncc1)c1ccccc1Cl`, the kinetic solubility is more than 34.9 µg/mL. The same measure for `Clc1ccc(-c2cn3ccccc3n2)cc1`: 2.5 µg/mL (≈ 10.9 µM); for `COc1cc(C(=O)NCc2cccs2)ccc1OCc1c(C)noc1C`: 5.9 µg/mL (≈ 15.8 µM). Consider `COc1ccc(CNC(=S)NC(C)CCc2ccccc2)cc1` (stereo not given), for which the solubility (kinetic) is 14.8 µg/mL (≈ 45.1 µM). The same measure for `O=C(O)c1ccccc1NC(=O)C1C2C=CC(C2)C1C(=O)O` (stereo not given): more than 45.2 µg/mL. For the compound `CC(C)(C)n1cnnc1Sc1ncccc1[N+](=O)[O-]`, the kinetic solubility is more than 41.9 µg/mL. Regarding `COc1ccc(C)cc1NC(=S)NC12CN3CN(CN(C3)C1)C2`, the solubility (kinetic) is more than 50 µg/mL. As for `Cc1cccc(OCC(=O)NC2CC(C)(C)NC(C)(C)C2)c1`, the solubility (kinetic) was more than 45.7 µg/mL. Turning to `O=C(COC(=O)c1ccc(O)cc1)Nc1ccc2c(c1)OCO2`, the kinetic solubility stood at 15.6 µg/mL (≈ 49.5 µM).

As to `CCN(CC)CC(=O)Nc1sc(C)c(C)c1C(=O)c1ccc(C)cc1`, the kinetic solubility turned out to be 4.6 µg/mL (≈ 12.8 µM). Consider `CN(C)C(=O)c1ccc(NC(=O)COC(=O)C2(c3ccccc3)CCCC2)cc1`, for which the kinetic solubility was 24.3 µg/mL (≈ 61.6 µM). The same measure for `O=C(c1ccc(F)cc1)C1CCN(C(=O)c2ccccc2)CC1`: more than 46.7 µg/mL. The same measure for `CN1C(=O)CSC1=Nc1ccc(Br)cc1`: 33.3 µg/mL (≈ 117 µM); for `COc1ccc(C(=O)O)cc1S(=O)(=O)Nc1ccc(C)cc1`: more than 48.2 µg/mL; for `CN(Cc1ccco1)C(=O)CCc1nc2sc3c(c2c(=O)[nH]1)CCCC3`: 22.4 µg/mL (≈ 60.3 µM). `NCCSc1c(-c2ccc(Cl)cc2)[nH]c2ccccc12` displayed a kinetic solubility of more than 45.4 µg/mL. The same measure for `O=C(O)c1c(NC(=O)N2CCOCC2)sc2c1CCCC2`: more than 46.6 µg/mL. The result for `O=C(NCCN1C(=O)S/C(=C\c2ccc(Cl)cc2)C1=O)C1=COCCO1` reads 2.6 µg/mL (≈ 6.59 µM); that for `CC(NC(=O)CNC(=O)c1cccc(Cl)c1)c1ccccc1` (stereo not given), 43.7 µg/mL (≈ 138 µM); that for `Cc1cc(Cl)nc(-c2ccccc2)n1`, 0.3 µg/mL (≈ 1.47 µM). In turn, `CC(=O)c1cccc(NC(=O)CSc2nc(C3CC3)nc3ccccc23)c1` gave a kinetic solubility of 0.9 µg/mL (≈ 2.38 µM). The result for `O=C(Nc1ccc(Cl)cc1)c1cncs1` reads more than 35.8 µg/mL; that for `COc1ccccc1OCC(=O)NC1CC(C)(C)NC(C)(C)C1`, 41.7 µg/mL (≈ 130 µM). The result for `Cc1ccc(S(=O)(=O)NCCC(=O)NCc2cccnc2)cc1` reads more than 50 µg/mL; that for `O=C(Cc1ccccc1F)NC1CCCc2ccccc21` (stereo not given), 16.7 µg/mL (≈ 58.9 µM); that for `COc1ccc(NC(=O)NC2CCCCCCC2)c(OC)c1`, 5.5 µg/mL (≈ 18 µM). The result for `COc1cccc(OC(=O)N2CCOCC2)c1` reads more than 35.6 µg/mL; that for `Cn1cc(S(=O)(=O)Oc2ccccc2)c(=O)n(C)c1=O`, 39.5 µg/mL (≈ 133 µM); that for `Nc1ccccc1C(O)(Cc1ccccc1)c1ccccc1` (stereo not given), 17.3 µg/mL (≈ 59.8 µM).

In the case of `CSc1nsc(SCC(=O)Nc2ccc(F)cc2F)n1`, the kinetic solubility was more than 50 µg/mL. For `Cc1nccc(-c2cc(-c3ccc(Cl)cc3Cl)no2)n1`, the solubility (kinetic) was less than 0.2 µg/mL. For `Cc1cccc(NC(=O)C2CCCCN2S(=O)(=O)c2ccccc2)c1C` (stereo not given), the kinetic solubility is 45.1 µg/mL (≈ 121 µM). The same measure for `CC[N+](C)(C)Cc1ccccc1Br.Cc1ccc(S(=O)(=O)[O-])cc1`: more than 62.2 µg/mL.

Compound `O=C(COC(=O)Cc1ccc(F)cc1)NC1CCCC1` yielded a solubility (kinetic) of more than 41.9 µg/mL.

In the case of `O=C(Nc1ccc(Cl)cc1)N1CCN(Cc2ccc3c(c2)OCO3)CC1`, the kinetic solubility is 5.7 µg/mL (≈ 15.2 µM).

In turn, `Cc1ccc2c(c1)N(CC(=O)Nc1nccs1)C(=O)CO2` returned a solubility (kinetic) of 1.3 µg/mL (≈ 4.29 µM).

`CN(C)/C=C/C(=O)c1ccc2noc(-c3cccc(F)c3)c2c1` yielded a solubility (kinetic) of 7.3 µg/mL (≈ 23.5 µM). Take `COc1cc(C(=O)Nc2ccc(C(=O)c3cccs3)cc2)cc(OC)c1OC`: the kinetic solubility turned out to be 8.2 µg/mL (≈ 20.6 µM). `CCc1nonc1NC(=O)c1oc2ccccc2c1C` returned a kinetic solubility of 3.1 µg/mL (≈ 11.4 µM). `Nc1nc(Nc2ccccc2F)nc(NCc2ccccc2)c1[N+](=O)[O-]` came in with a solubility (kinetic) of less than 0.1 µg/mL. The result for `COc1ccc(Nc2nc3ccccc3n2C)cc1` reads 36.5 µg/mL (≈ 144 µM); that for `CCN(CC)CCNS(=O)(=O)c1ccc2c3c(cccc13)C(=O)N2`, more than 52.1 µg/mL; that for `Clc1ccccc1CN1CCSCC1`, 1.6 µg/mL (≈ 7.02 µM). The same measure for `COc1ccccc1C(=O)C1CCCN(Cc2ccc3c(c2)OCCO3)C1` (stereo not given): 36.7 µg/mL (≈ 99.9 µM). The result for `CCN(CC(=O)Nc1c(F)cccc1F)C(=O)c1ccc(C#N)cc1` reads more than 51.5 µg/mL. Compound `CN1C(=O)Cc2cc(S(=O)(=O)NCc3cccs3)ccc21` had a solubility (kinetic) of more than 48.4 µg/mL. The same measure for `Cc1ccsc1C(=O)OCC(=O)NC1CC1`: more than 35.9 µg/mL; for `O=C(NCc1nc2ccccc2[nH]1)C1CCCCC1`: more than 38.6 µg/mL.

On to `Cc1cnc(NC(=O)c2ccncc2)s1`, for which the solubility (kinetic) turned out to be 30.2 µg/mL (≈ 138 µM).

Take `COc1ccc(N2CCN(C(=O)Cc3ccc(C)cc3)CC2)cc1`: the kinetic solubility worked out at 43.9 µg/mL (≈ 135 µM).

Consider `CCN(CC)CCNC(=O)C(=O)Nc1ccc(C(=O)OC)cc1`, for which the solubility (kinetic) is more than 48.2 µg/mL.

On to `CC(=O)c1ccc(NC(=O)CN2C(=O)NC3(CCCc4ccccc43)C2=O)cc1` (stereo not given), for which the solubility (kinetic) was more than 58.7 µg/mL. `Cc1ccc(Nc2nc(-c3ccccc3)cs2)nc1` showed a solubility (kinetic) of less than 0.2 µg/mL. Regarding `COc1ccc(C(=O)COC(=O)C2CCC(=O)N2)cc1` (stereo not given), the solubility (kinetic) is more than 41.6 µg/mL.

In turn, `CC(C)(C)NC(=O)c1ccc2c(c1)C(=O)N(Cc1ccco1)C2=O` showed a kinetic solubility of 46 µg/mL (≈ 141 µM). The result for `O=C(O)CCN1CCc2ccccc2C1c1ccncc1` (stereo not given) reads more than 42.4 µg/mL. The compound `Cc1ccc2[nH]c(CNC(=O)c3ccccc3F)cc2c1` came in with a kinetic solubility of 5.4 µg/mL (≈ 19.1 µM).

In the case of `CC(=O)C1=C(c2ccccc2)NC(=O)NC1c1ccc(O)c(Cl)c1` (stereo not given), the solubility (kinetic) is more than 51.4 µg/mL. On to `CCc1nc(NC(=O)c2sc(C)nc2C)sc1C(=O)OC`, for which the kinetic solubility was more than 48.8 µg/mL. The result for `CN(C)/C(=N\S(=O)(=O)c1ccccc1)c1ccc(F)cc1` reads more than 46 µg/mL; that for `Cc1nn(-c2ccccc2)c(N)c1N=O`, more than 30.3 µg/mL.

One may read the solubility (kinetic) as the concentration staying in solution when a stock, usually in DMSO, is diluted into the medium.
